Patent publication EP4803517A1, “PROTEIN TRANSLATION INHIBITOR” (Duality Biologics (Shanghai) Co., Ltd., priority 2023, dated 2025)
Like-named read-outs stand apart in the source and are kept apart here. One block for each molecule: values may come before it.

Experiments:
Experiment in all cases: Inhibition of in vitro proliferation of tumor cells (CTG, CellTiter-Glo)
Format in all cases: cell-based
BT474 = settings: Homo sapiens, BT-474, 120 h, 5 days of culture, CTG reagent, read-out: Proliferation inhibitory activity IC50 (nM) BT474
Experimental: (§1) Assay objective: To detect the inhibitory effects of the drug compounds on tumor cell proliferation, for example, the inhibitory activity thereof on the in vitro proliferation of NCI-H716, NCI-H1975, NCI-H1373, NCI-H647, NCI-H520, BT474, DLD-1, NCI-N87, NUGC-4, SNU-423, MKN-45, SK-OV-3, OVCAR3, Ls174T, HCC1954, and ES2 tumor cells. The cells were treated with the compounds at different concentrations in vitro. After 5 days of culture, the proliferation of the cells was detected using the CTG (CellTiter-Glo® Luminescent Cell Viability Assay, Promega, Cat. No. G7558) reagent, and the in vitro activity of the compounds was evaluated based on the IC50 value. 1. Cell preparation: NCI-H716, NCI-H1975, NCI-H1373, NCI-H647, NCI-H520, BT474, DLD-1, NCI-N87, NUGC-4, SNU-423, MKN-45, SK-OV-3, OVCAR3, Ls174T, HCC1954, and ES2 cells in the logarithmic phase were each taken, washed once with PBS, and then digested with 2-3 mL of trypsin for 2-3 min. After the cells were digested completely, 10-15 mL of a cell culture medium was added to elute the digested cells. The eluate was centrifuged at 1000 rpm for 5 min, and the supernatant was discarded. Subsequently, the resulting cells were resuspended in 10-20 mL of the cell culture medium to prepare a single-cell suspension. 2. Cell plating: The NCI-H716, NCI-H1975, NCI-H1373, NCI-H647, NCI-H520, NCI-N87, BT474, DLD-1, NCI-N87, NUGC-4, SNU-423, MKN-45, SK-OV-3, OVCAR3, Ls174T, HCC1954, and ES2 single-cell suspensions were each well mixed and adjusted to a viable cell density of 6 × 10^4 cells/mL with the cell culture medium. The density-adjusted cell suspensions were each well mixed and added to a 96-well cell culture plate at 50 µL/well. The culture plate was incubated in an incubator overnight (37 °C, 5% CO2). 3. Compound preparation: Each compound was dissolved in DMSO to prepare a stock solution with an initial concentration of 10 mM. There were 6 concentrations in total for the small molecule compound: 1000 nM, 333 nM, 111 nM, 37.03 nM, 12.34 nM, and 4.11 nM. 4. Sample addition: The prepared test samples at different concentrations were added to the culture plate, with two duplicate wells set for each sample. The culture plate was incubated in the incubator for 5 days (37 °C, 5% CO2). 5. Color development: The 96-well cell culture plate was taken out, and 50 µL of the CTG reagent was added to each well. The plate was then incubated at room temperature for 10 min. 6. Plate reading: The 96-well cell culture plate was taken out and placed in a microplate reader, and the chemiluminescence was measured using the microplate reader. 7. Data analysis: The cell viability was calculated according to the formula: (Lumtest drug - Lumblank control)/(Lumsolvent blank control - Lumblank control) × 100%. Using a nonlinear regression model in the GraphPad Prism software, a sigmoidal dose-survival rate curve was plotted, and the IC50 values were calculated. Table 2. IC50 values for the inhibition of the in vitro proliferation of tumor cells by the racemates of the small molecule compounds of the present application

DLD-1 = settings: Homo sapiens, 120 h, DLD-1 cells, 5 days of culture, CTG reagent, read-out: Proliferation inhibitory activity IC50 (nM) DLD-1
Experimental: as §1

MKN-45 = settings: Homo sapiens, 120 h; racemates; MKN-45 cells; 5 days of culture; CTG reagent; read-out: Proliferation inhibitory activity IC50 (nM) MKN-45
Experimental: as §1

HCC1954 = settings: Homo sapiens, 120 h, racemates, 5 days of culture, CTG reagent, read-out: Proliferation inhibitory activity IC50 (nM) HCC1954
Experimental: as §1

Ls174T = settings: Homo sapiens, 120 h, racemates, 5 days of culture, CTG reagent, read-out: Proliferation inhibitory activity IC50 (nM) Ls174T
Experimental: as §1

SNU-423 = settings: Homo sapiens, 120 h; racemates; SNU-423 cells; 5 days of culture; CTG reagent; read-out: Proliferation inhibitory activity IC50 (nM) SNU-423
Experimental: as §1

SK-OV-3 = settings: Homo sapiens, 120 h; racemates; SK-OV-3 cells; 5 days of culture; CTG reagent; read-out: Proliferation inhibitory activity IC50 (nM) SK-OV-3
Experimental: as §1

NUGC-4 = settings: Homo sapiens, 120 h; racemates; NUGC-4 cells; 5 days of culture; CTG reagent; read-out: Proliferation inhibitory activity IC50 (nM) NUGC-4
Experimental: as §1

NCI-N87 = settings: Homo sapiens, 120 h, racemates, 5 days of culture, CTG reagent, read-out: Proliferation inhibitory activity IC50 (nM) NCI-N87
Experimental: as §1

[1] = Table 3, chirally resolved compounds

SMILES: COc1cnc(-c2cc(OC)c3c(c2)O[C@@]2(c4ccc(C#N)cc4)[C@H](c4cccc(N)c4)[C@@H](C(=O)N(C)OC)[C@@H](O)[C@@]32O)nc1 (racemic) [Racemate of compound 31]
IC50 (MKN-45): 1.32 nM

SMILES: COc1cnc(-c2cc(OC)c3c(c2)O[C@@]2(c4ccc(C#N)cc4)[C@H](c4cccc(N)c4)[C@@H](C(=O)N(C)OC)[C@@H](O)[C@@]32O)cn1 (racemic) [Racemate of compound 43]
IC50 (MKN-45): 2 nM

SMILES: COc1cc(-c2ncc(C(F)(F)F)cn2)cc2c1[C@]1(O)[C@H](O)[C@H](C(=O)N(C)OC)[C@@H](c3cccc(N)c3)[C@]1(c1ccc(C#N)cc1)O2 (racemic) [Racemate of compound 32]
IC50 (Ls174T): 5.45 nM

SMILES: COc1ccc([C@@]23Oc4cc(-c5ncco5)ccc4[C@]2(O)[C@H](O)[C@H](C(=O)N(C)C)[C@H]3c2ccccc2)cc1 (racemic) [Racemate of compound 57]
IC50 (DLD-1; racemates): 2.35 nM

SMILES: COc1ccc([C@@]23Oc4cc(OC)cc(OC)c4[C@]2(O)[C@H](O)[C@H](C(=O)N(C)C)[C@H]3c2ccccc2)cc1 [Rocaglamide, reference compound]
IC50 (Ls174T): 6.08 nM
IC50 (SNU-423): 14.4 nM
IC50 (SK-OV-3): 8.52 nM
IC50 (NUGC-4): 8.25 nM
IC50 (NCI-N87): 9.32 nM
IC50 (MKN-45): 5.75 nM
IC50 (BT474; racemates): 5.49 nM
IC50 (DLD-1; racemates): 8.19 nM
IC50 (HCC1954): 2.66 nM

SMILES: COc1cc(-c2ncc(C#N)cn2)cc2c1[C@]1(O)[C@H](O)[C@H](C(=O)N(C)OC)[C@@H](c3cccc(N)c3)[C@]1(c1ccc(C#N)cc1)O2 (racemic) [Racemate of compound 30]
IC50 (MKN-45): 1.5 nM

SMILES: COc1cc(-c2cscn2)cc2c1[C@]1(O)[C@H](O)[C@H](C(=O)N(C)C)[C@@H](c3cccc(N)c3)[C@]1(c1ccc(C#N)cc1)O2 (racemic) [Racemate of compound 111]
IC50 (HCC1954): 2.98 nM

SMILES: COc1cc(-c2ncco2)cc2c1[C@]1(O)[C@H](O)[C@H](C(=O)N3CC(O)C3)[C@@H](c3ccccc3)[C@]1(c1ccc(C#N)cc1)O2 (racemic) [Racemate of compound 16]
IC50 (MKN-45): 2.34 nM

SMILES: COc1ccc([C@@]23Oc4cc(-c5ncco5)cc(OC)c4[C@]2(O)[C@@H](CN)[C@H](CO)[C@H]3c2ccccc2)cc1 (racemic) [Racemate of compound 9]
IC50 (MKN-45): 0.695 nM
IC50 (BT474; racemates): 0.829 nM

SMILES: COc1ccc([C@@]23Oc4cc(-c5ncco5)cc(OC)c4[C@]2(O)[C@H](O)[C@H](C(=O)N2CC(O)C2)[C@H]3c2ccccc2)cc1 (racemic) [Racemate of compound 48]
IC50 (BT474; racemates): 2.25 nM

SMILES: COc1cc(-c2ncco2)cc2c1[C@]1(O)[C@H](O)[C@H](C(=O)N(C)OC)[C@@H](c3cccc(O)c3)[C@]1(c1ccc(C#N)cc1)O2 (racemic) [Racemate of compound 15]
IC50 (MKN-45): 2.65 nM

SMILES: COC(=O)[C@H]1[C@@H](O)[C@@]2(O)c3c(OC)cc(-c4cnco4)cc3O[C@@]2(c2ccc(C#N)cc2)[C@@H]1c1cccc(N)c1 (racemic) [Racemate of compound 3]
IC50 (SNU-423): 8.18 nM
IC50 (NUGC-4): 3.51 nM
IC50 (NCI-N87): 3.63 nM

More lines, now with the values ahead:

IC50 (BT474; [1]): < 10 nM
IC50 (DLD-1; [1]): < 10 nM
SMILES: COc1ccc([C@@]23Oc4cc(-c5ncco5)cc(OC)c4[C@]2(O)[C@@H](CNC(=O)CN(C)C)C[C@H]3c2cccc(N)c2)cc1 (single isomer, unassigned) [Compound 93]

IC50 (DLD-1; racemates): 0.92 nM
SMILES: COc1ccc([C@@]23Oc4cc(-c5nc(CO)co5)cc(OC)c4[C@]2(O)[C@@H](N(C)C)C[C@H]3c2ccccc2)cc1 (racemic) [Racemate of compound 107]

IC50 (HCC1954): 1.5 nM
SMILES: COc1ccc([C@@]23Oc4cc(-c5ncco5)cc(OC)c4[C@]2(O)[C@@H](CNC(=O)CN(C)C)C[C@H]3c2cccc(N)c2)cc1 (racemic) [Racemate of compound 93]

IC50 (MKN-45): 1.4 nM
IC50 (BT474; racemates): 3.04 nM
SMILES: COc1cc(-c2ncco2)cc2c1[C@]1(O)[C@H](O)[C@H](C(=O)N(C)OC)[C@@H](c3cccc(N)c3)[C@]1(c1ccc(C#N)cc1)O2 (racemic) [Racemate of compound 4]

IC50 (DLD-1; racemates): 2.16 nM
SMILES: COc1ccc([C@@]23Oc4cc(-c5ncco5)cc(OC)c4[C@]2(O)[C@@H](CNC(=O)COCCO)C[C@H]3c2ccccc2)cc1 (racemic) [Racemate of compound 91]

IC50 (DLD-1; racemates): 1.35 nM
SMILES: COc1ccc([C@@]23Oc4cc(-c5ncco5)cc(OC)c4[C@]2(O)[C@@H](CNC(=O)[C@H](CO)N(C)C)C[C@H]3c2ccccc2)cc1 (racemic) [Racemate of compound 89]

IC50 (SNU-423): 3.67 nM
IC50 (SK-OV-3): 2.05 nM
IC50 (NUGC-4): 1.98 nM
IC50 (NCI-N87): 2.07 nM
IC50 (BT474; racemates): 3.33 nM
SMILES: COC(=O)[C@H]1[C@@H](O)[C@@]2(O)c3c(OC)cc(-c4ncco4)cc3O[C@@]2(c2ccc(C#N)cc2)[C@@H]1c1cccc(N)c1 (racemic) [Racemate of compound 2]

IC50 (BT474; [1]): < 10 nM
IC50 (DLD-1; [1]): < 10 nM
SMILES: COc1ccc([C@@]23Oc4cc(-c5ncco5)cc(OC)c4[C@]2(O)[C@@H](N(C)C)C[C@H]3c2cccc(N)c2)cc1 (single isomer, unassigned) [Compound 98]

IC50 (BT474; [1]): < 10 nM
SMILES: COc1ccc([C@@]23Oc4cc(-c5ncco5)cc(OC)c4[C@]2(O)[C@H](O)C[C@H]3c2cccc(N)c2)cc1 (single isomer, unassigned) [Compound 49]

IC50 (BT474; [1]): < 10 nM
IC50 (DLD-1; [1]): < 10 nM
SMILES: COc1cc(-c2ncco2)cc2c1[C@]1(O)[C@H](O)[C@H](C(=O)N(C)OC)[C@@H](c3cccc(N)c3)[C@]1(c1ccc(C#N)cc1)O2 [Compound 4]

IC50 (DLD-1; racemates): 2.84 nM
SMILES: COc1ccc([C@@]23Oc4cc(-c5ncco5)cc(OC)c4[C@]2(O)[C@@H](CNC(=O)NO)C[C@H]3c2ccccc2)cc1 (racemic) [Racemate of compound 87]

IC50 (DLD-1; racemates): 2.99 nM
IC50 (HCC1954): 2.15 nM
SMILES: COc1ccc([C@@]23Oc4cc(-c5ncco5)cc(OC)c4[C@]2(O)[C@@H](C#N)C[C@H]3c2cccc(N)c2)cc1 (racemic) [Racemate of compound 86]
